Data on 8 compounds can be found in article PMC8000592, “Discovery and Optimization of Selective Inhibitors of Meprin α (Part I)” (Pharmaceuticals, 2021).

For assay [1], the target named is T1, meprin α (Homo sapiens, UniProt Q16819).
T1 sequence (Q16819 66-593 limits assumed): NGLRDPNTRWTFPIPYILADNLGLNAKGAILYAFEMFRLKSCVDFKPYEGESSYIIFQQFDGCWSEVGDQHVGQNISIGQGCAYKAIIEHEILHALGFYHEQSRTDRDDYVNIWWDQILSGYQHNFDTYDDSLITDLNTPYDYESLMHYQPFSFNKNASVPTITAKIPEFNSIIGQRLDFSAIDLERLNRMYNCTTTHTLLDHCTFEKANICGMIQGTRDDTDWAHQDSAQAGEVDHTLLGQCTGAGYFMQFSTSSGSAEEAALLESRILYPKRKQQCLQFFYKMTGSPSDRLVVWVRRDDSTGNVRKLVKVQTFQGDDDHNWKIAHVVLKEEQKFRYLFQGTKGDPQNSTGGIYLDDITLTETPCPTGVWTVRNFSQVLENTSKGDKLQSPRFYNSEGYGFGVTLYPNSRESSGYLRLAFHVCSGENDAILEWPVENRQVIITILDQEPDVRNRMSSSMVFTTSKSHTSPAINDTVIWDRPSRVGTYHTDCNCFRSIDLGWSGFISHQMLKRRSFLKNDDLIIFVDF
The experiment in a line: Meprin α assay, fluorogenic substrate (Mca)-YVADAPK-(K-ε-Dnp), 384 and 1536 well plate formats. The format is biochemical. An excerpt: (§1) The meprin α and meprin β assays, which utilize the substrates (Mca)-YVADAPK-(K-ε-Dnp) and (Mca)-EDEDED-(K-ε-Dnp), respectively, have been described previously. To enable an ultra-high-throughput screening (uHTS) campaign, we proceeded to miniaturize both assays to 1536 well plate format (wpf). First, we recapitulated the assays in 1536 well plate using reagents at the same concentrations as in 384 well plate format assays by scaling the volume down by the factor of 2.5.
(§2) Both assays followed the same general protocol. A 5 µL measure of 2 × enzyme solution (2.6 and 0.1 nM for meprin α and meprin β, respectively) in assay buffer (50 mM Hepes, 0.01% Brij-35, pH 7.5) was added to solid bottom black 384 low volume plates (Nunc, cat# 264705). Next, 75 nL of test compounds or pharmacological control (actinonin or NFF449) were added to corresponding wells using a 384-pin tool device (V&P Scientific, San Diego, CA, USA). After 30 min incubation at RT, the reactions were started by addition of 5 µL of 2 × solutions of substrates (20 µM, mepin α substrate Mca-YVADAPK-K(Dnp) or meprin β substrate Mca-EDEDED-K(Dnp)). Reactions were incubated at RT for 1 h, after which the fluorescence was measured using the Synergy H4 multimode microplate reader (Biotek Instruments) (λexcitation = 324 nm, λemission = 390 nm).
(§3) Both assays followed the same general protocol. A 2 µL portion of 2 × enzyme solution (1.3 and 0.0125 nM for meprin α and meprin β, respectively) in assay buffer (50 mM Hepes, 0.01% Brij-35, pH 7.5) was added to solid bottom black 1536 low volume plates (Corning cat# 7261). Next, 30 nL of test compounds or pharmacological control (actinonin or NFF449) was added to corresponding wells using a 1536 pin tool device (V&P Scientific, San Diego). After 30 min incubation at RT, the reactions were started by addition of 2 µL of 2x solutions of substrates (20 µM, meprin α substrate Mca-YVADAPK-K(Dnp) or meprin β substrate Mca-EDEDED-K(Dnp)). Reactions were incubated at RT for 1 h, after which the fluorescence was measured using the Viewlux multimode microplate reader (Perkin Elmer) (λexcitation = 324 nm, λemission = 390 nm).
(§4) The miniaturized 1536-well plate format meprin α and meprin β assays were used to screen a collection of approximately 650,000 compounds (The Scripps Research library, La Jolla, CA, USA) on the automated Kalypsys/GNF platform at The Scripps Research Molecular Screening Center (SRMSC, Jupiter, FL, USA: http://hts.florida.scripps.edu/). Both uHTS campaigns were run separately but in a similar manner. Briefly, the first step was the primary screen of all test compounds as singlicates against the meprin α and meprin β target at a final concentration of 7.0 μM. Next, compounds selected as primary hits were cherry-picked and retested in triplicate against the primary screen target and its antitarget (meprin α for the meprin β screening effort, and vice versa) at a same final concentration of 7.0 μM. The additional counter screen assays against related metzincins (MMP-8, MMP-14, and ADAM10) were performed in triplicate at a final concentration of 7.0 μM. The final step was the titration of selected hits as 10-point, 1:3 serial dilutions in both the target and antitarget assay, starting at a final nominal concentration of 17 μM. […] Wells treated with DMSO only were used as negative controls and 0% inhibition reference. […] All data generated during this effort were uploaded to the SRMSC’s institutional screening database (Assay Explorer, Symyx). Sample to background (S/B) ratios, as well as Z and Z’ values, were calculated on a per plate basis as described 14. Curve fitting and resulting IC50 determinations were performed as previously reported.

Assay [2] addresses T2, meprin β (Homo sapiens, UniProt Q16820).
T2 sequence (Q16820 62-594 limits assumed): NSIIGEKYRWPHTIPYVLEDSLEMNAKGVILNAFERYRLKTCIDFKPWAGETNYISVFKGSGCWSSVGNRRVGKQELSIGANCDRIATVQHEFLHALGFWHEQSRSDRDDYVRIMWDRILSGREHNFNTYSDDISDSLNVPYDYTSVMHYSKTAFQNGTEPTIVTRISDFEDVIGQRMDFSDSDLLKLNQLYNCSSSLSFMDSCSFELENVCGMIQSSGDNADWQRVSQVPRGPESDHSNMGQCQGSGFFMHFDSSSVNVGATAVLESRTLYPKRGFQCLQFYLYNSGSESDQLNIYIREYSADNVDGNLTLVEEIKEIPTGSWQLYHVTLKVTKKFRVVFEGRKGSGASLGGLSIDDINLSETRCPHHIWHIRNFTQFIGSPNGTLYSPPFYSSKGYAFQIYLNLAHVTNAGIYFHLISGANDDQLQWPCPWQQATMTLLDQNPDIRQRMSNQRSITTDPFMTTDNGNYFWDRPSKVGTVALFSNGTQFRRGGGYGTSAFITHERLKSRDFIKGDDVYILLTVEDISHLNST
In words: Meprin β assay, fluorogenic substrate (Mca)-EDEDED-(K-ε-Dnp), 384 and 1536 well plate formats. Conditions: read-out: IC50. The format is biochemical.
From the text: as §1, §2, §3, §4

A further assay deals with MMP and ADAM. Conditions: cited from earlier work; for effect on MMP and ADAM activity: 200 µM inhibitor.
Assay [3] relates to meprin β. Conditions: cited from earlier work.
The test system of assay [4] is meprin α. Conditions: cited from earlier work.
In assay [5] the target is T1, meprin α. The experiment in a line: Kinetic parameters of meprin α mediated proteolysis of its substrate. The format is biochemical. Conditions: proteolysis by meprin α, 25 °C. On the procedure: Next, we performed substrate optimization to achieve balanced assay conditions defined as [S]/KM = 1 [19]. In order to do that, we first determined kinetic parameters of proteolysis of meprin α and meprin β substrates by the respective enzymes (Figure 4A,B). […] To optimize substrate concentrations, both assays were run for 90 min at three different substrate concentrations (10, 5, and 2.5 µM) which included the concentration at which the assays were recapitulated in 1536 wpf (10 µM for both meprin α and meprin β) and the concentration approximating [S]/KM = 1 condition (2.5 µM). Enzyme concentrations were fixed at 1.3 nM for meprin α and 0.0125 nM for meprin β. […]
Substrate stock solutions were prepared at various concentrations in HTS assay buffer (50 mM Hepes, 0.01% Brij-35, pH 7.5). […] Fluorescence was measured on a multimode microplate reader Synergy H1 (Biotek Instruments, Winooski, VT, USA) using λexcitation = 324 nm and λemission = 393 nm. Rates of hydrolysis were obtained from plots of fluorescence versus time, using data points from only the linear portion of the hydrolysis curve. The slope from these plots was divided by the fluorescence change corresponding to complete hydrolysis and then multiplied by the substrate concentration to obtain rates of hydrolysis in units of μM/s. […]

In general, IC50 refers to the concentration that inhibits the measured activity by half. Usually Km stands for the substrate concentration at which the rate is half of its maximum. In general, Ki refers to a dissociation constant, usually derived from enzyme kinetics or from competition with a known ligand.

Like-named read-outs stand apart in the source and are kept apart here. Peptide text beside a SMILES is read from it. * marks the point of attachment. Dnp = O=[N+]([O-])c1ccc(*)c([N+](=O)[O-])c1; Mca = COc1ccc2c(CC(=O)*)cc(=O)oc2c1

For `CCCCC[C@H](CC(=O)NO)C(=O)N[C@H](C(=O)N1CCC[C@H]1CO)C(C)C` [Actinonin, actinonin], the increased apparent potency at meprin α [1] (2.5 µM substrate condition) turned out to be 2 fold. Besides, the IC50 at meprin α [1] (1536 wpf, 1.3 nM enzyme, substrate 2.5uM, time 30 min, read-out: Actinonin IC50) stood at 3 nM; at meprin α [1] (1536 wpf, 1.3 nM enzyme, substrate 2.5uM, time 60 min, read-out: Actinonin IC50) it was 3.4 nM; at meprin α [1] (1536 wpf, 1.3 nM enzyme, substrate 5uM, time 30 min, read-out: Actinonin IC50), 3.2 nM; on meprin α [1] (1536 wpf, 1.3 nM enzyme, substrate 10uM, time 30 min, read-out: Actinonin IC50) it was 5.4 nM; at meprin α [1] (1536 wpf, 1.3 nM enzyme, substrate 10uM, time 60 min, read-out: Actinonin IC50) it was 6.4 nM; at meprin α [1] (1536 wpf, 1.3 nM enzyme, substrate 10uM, time 90 min, read-out: Actinonin IC50) it was 6.9 nM. Also, the half-inhibitory concentration (IC50) was found to be 5.18 nM at meprin α [1] (1536 wpf, enzyme 0.32nM, time 30 min, read-out: Actinonin IC50); 5.54 nM at meprin α [1] (1536 wpf, enzyme 0.32nM, time 60 min, read-out: Actinonin IC50); 5.83 nM on meprin α [1] (1536 wpf, enzyme 0.32nM, time 90 min, read-out: Actinonin IC50); 4.11 nM at meprin α [1] (1536 wpf, enzyme 0.65nM, time 30 min, read-out: Actinonin IC50); 4.99 nM at meprin α [1] (1536 wpf, enzyme 0.65nM, time 60 min, read-out: Actinonin IC50); 5.2 nM at meprin α [1] (1536 wpf, enzyme 0.65nM, time 90 min, read-out: Actinonin IC50). In addition, the IC50 is 4.84 nM on meprin α [1] (1536 wpf, enzyme 1.3nM, time 30 min, read-out: Actinonin IC50); 5.94 nM at meprin α [1] (1536 wpf, enzyme 1.3nM, time 60 min, read-out: Actinonin IC50); 6.33 nM on meprin α [1] (1536 wpf, enzyme 1.3nM, time 90 min, read-out: Actinonin IC50); 11 nM at meprin α [1] (Meprin α 384 wpf, read-out: IC50); 5.7 nM on meprin α [1] (Meprin α 1536 wpf, read-out: IC50); 2.9 ± 0.12 nM on meprin α [1] (control compound in primary HTS campaign, n = 11 plates, read-out: IC50). Besides, the IC50 on meprin β [2] (Meprin β 384 wpf) turned out to be 22000 nM; on meprin β [2] (Meprin β 1536 wpf), 9750 nM.

For `O=C(CN(Cc1ccc(Cl)c(O)c1F)Cc1ccc(Cl)c(O)c1F)NO` [Compound 8i], the “effect on MMP and ADAM activity” value in the assay with MMP and ADAM is “only limited effect”. The “selective against meprin α” value with meprin β [3] is recorded as 15 fold. In addition, the IC50 with meprin β [3] (read-out: IC50 meprin β) is 24 nM; in the assay with meprin α [4] (read-out: IC50 meprin α) it was 368 nM.

For the compound `O=C(CCN(CCc1ccc2c(c1)OCCO2)CCc1ccc2c(c1)OCCO2)NO` [Compound 10d], the IC50 in the assay on meprin β [3] (read-out: Meprin β IC50) is 2950 nM; in the assay with meprin α [4] (read-out: Meprin α IC50), 160 nM. Also, in the assay on meprin α [4], the “selectivity against meprin β (Selectivity Fold)” value was 18 fold.

Take `O=C(CN(Cc1cccc(C(=O)O)c1)S(=O)(=O)c1cccc(C(=O)O)c1)NO` [Compound 11g]: in the assay with MMP and ADAM, the “selectivity against adamalysins and matrixins” value is recorded as “good selectivity”. Also, the “selectivity against meprin α” value in the assay with meprin β [3] is recorded as 46 fold. Moreover, the figures for the IC50 in the assay on meprin β [3] (read-out: IC50 meprin β) and in the assay on meprin α [4] (read-out: IC50 meprin α) were 60 nM and 2740 nM, respectively.

With `COc1ccc2c(CC(=O)N[C@@H](Cc3ccc(O)cc3)C(=O)N[C@H](C(=O)N[C@@H](C)C(=O)N[C@@H](CC(=O)O)C(=O)N[C@@H](C)C(=O)N3CCC[C@H]3C(=O)N[C@@H](CCCCN)C(=O)N[C@@H](CCCCNc3ccc([N+](=O)[O-])cc3[N+](=O)[O-])C(N)=O)C(C)C)cc(=O)oc2c1` [meprin α substrate, (Mca)-YVADAPK-(K-ε-Dnp)] (Mca-YVADAPKK(Dnp)-NH2), the Michaelis-Menten constant (Km) on meprin α [5] came out at 2.4 ± 0.3 µM.

With `O=C(CCN(CCc1ccc2c(c1)OCO2)CCc1ccc2c(c1)OCO2)NO` [Compound 10e], the IC50 with meprin β [3] (read-out: Meprin β IC50) is 7590 nM; in the assay on meprin α [4] (read-out: Meprin α IC50), 400 nM. Besides, in the assay on meprin α [4], the “selectivity against meprin β (Selectivity Fold)” value is 19 fold.

Consider `O=C(CN(Cc1ccc(F)c(O)c1F)Cc1ccc(F)c(O)c1F)NO` [Compound 8h], for which the “effect on MMP and ADAM activity” value with MMP and ADAM is “only limited effect”. Further, in the assay on meprin β [3], the “selective against meprin α” value is listed as 27 fold. Besides, the results for the IC50 in the assay with meprin β [3] (read-out: IC50 meprin β) and with meprin α [4] (read-out: IC50 meprin α) were 23 nM and 626 nM, respectively.

Consider `Cc1nc(/N=N/c2cc(S(=O)(=O)O)c3cc([N+](=O)[O-])cc(S(=O)(=O)O)c3c2)c(COP(=O)(O)O)c(C=O)c1O` [PPNDS], for which the inhibition constant Ki on meprin β [3] is 8 nM.
